Read-outs that look alike come from different tables or passages of the source.
How the values were obtained:
[1] = system: uptake of tritiated 5-HT; assay: Inhibition of the uptake of tritiated 5-HT in vitro (midbrain slices); format: biochemical, mice; conditions: for Inhibition (50 %) of uptake in vitro, 5-HT: 5-hydroxytryptamine 10^-7 M
Protocol: (§1) 1. Inhibition of the uptake of tritiated 5-HT in vitro and in vivo
[…] out and sliced and incubated in a mixture consisting of, per 100 mg of brain slices, […] 2 ml of Krebs-Henseleit buffer, pH 7.4. The incubation time was 5 minutes with 5 minutes of preincubation before ^3 H-5-HT was added. The radioactive ^3 H-5-HT taken up in the slices was extracted with ethanol and the amount was determined by liquid scintillation. […] Active uptake is defined as that part of the radioactive uptake which is inhibited by a high concentration of cocaine. All doses were given at least to four animals.

[2] = system: uptake of tritiated noradrenaline; assay: Inhibition of the uptake of tritiated noradrenaline in vitro (cortex slices); format: biochemical; conditions: for Inhibition (50 %) of uptake in vitro, NA: dl-noradrenaline 10^-7 M
Protocol: (§2) 2. Inhibition of the uptake of tritiated noradrenaline in vitro and in vivo
(§3) The method is found in European Journal of Pharmacology 2 (1967), 181- 186. The animals were killed half or one hour after the administration of the drugs in vivo (i.p.). The slices, made from cortex, were preincubated for five minutes and incubated with 0.1 μmole per ml of ^3 H-noradrenaline for further five minutes. The incubation mixture consisted of 0.2 μmole of ^3 H-NA and the brain slices in 2 ml of Krebs-Henseleits buffer, pH 7.4. The radioactive ^3 H-NA taken up in the slices was extracted with ethanol and the amount was determined by liquid scintillation. The dose producing 50 percent decrease of the active uptake (ED50) was determined graphically from dose response curves. At least four animals were used at each dose level.
Inhibition (50 %) of uptake
^2) Na = dl-noradrenaline 10^-7 M

[3] = system: uptake of tritiated 5-HT; assay: Inhibition of the uptake of tritiated 5-HT in vivo (drug i.p., uptake in midbrain slices); design: species or system mice; conditions: for ED50: Mus musculus, ip, 0.5 h, read-out: Inhibition (50 %) of uptake in vivo, 5-HT (ED50), i.p., half an hour before the animals were killed
Protocol: as §1
The drugs were administered intraperitoneally half an hour before the animals were killed and the midbrain was taken out and sliced and incubated in a mixture consisting of, per 100 mg of brain slices, 0.2 μmole of ^3 H-5-HT and 1 μmole of glucose in 2 ml of Krebs-Henseleit buffer, pH 7.4. The incubation time was 5 minutes with 5 minutes of preincubation before ^3 H-5-HT was added. The radioactive ^3 H-5-HT taken up in the slices was extracted with ethanol and the amount was determined by liquid scintillation. […] Active uptake is defined as that part of the radioactive uptake which is inhibited by a high concentration of cocaine. All doses were given at least to four animals.

[4] = system: uptake of tritiated noradrenaline; assay: Inhibition of the uptake of tritiated noradrenaline in vivo (drug i.p., uptake in cortex slices); conditions: for ED50: ip, 1 h, read-out: Inhibition (50 %) of uptake in vivo, NA (ED50), i.p., half or one hour before the animals were killed
Protocol: as §2
as §3, with “The” for “The method is found in European Journal of Pharmacology 2 (1967), 181- 186. The”

[5] = system: 5-HTP response; assay: 5-HTP response potentiation test; format: in vivo, mice; conditions: for 5-HTP potentiation, 25 mg/kg i.p., 1h: drug 1 h before 5-HTP; for 5-HTP potentiation, 25 mg/kg i.p., 1h / 5-HTP potentiation, 25 mg/kg i.p., 4h: 0 = without effect; for 5-HTP potentiation, 25 mg/kg i.p., 4h: drug 4 h before 5-HTP
Protocol: 1. 5-HTP response potentiation test
Inhibition of the uptake of 5-HT potentiates the effects of administered 5-hydroxytryptophane (5-HTP) probably by increasing the amount of 5-HT at the receptor.
These small movements are quantitatively measured in an activity box, type Animex, which can distinguish between small and gross movements. The activity is measured during 20 minutes and only in the case the animals have a fullblown syndrome.

[6] = system: Dopa response; assay: Dopa response potentiation test; format: in vivo, mice; conditions: score, pargyline pretreated; for L-DOPA potentiation, 10 mg/kg i.p., 1h: drug 1 h before 1-Dopa 100 mg/kg i.p.; for L-DOPA potentiation, 10 mg/kg i.p., 4h: drug 4 h before 1-Dopa 100 mg/kg i.p.
Protocol: Mice in groups of 3 are pretreated with Pargyline® 40 mg/kg p.o. about 10-16 hours before the test. […] 1-Dopa gives a characteristic syndrome which is scored as follows:
1. piloerection, slight salivation, slight increased motor activity
2. piloerection, salivation, marked increased motor activity and irritability
3. piloerection, profuse salivation, marked irritability and reactivity, jumping, squeaking, fighting.
The control groups are Amitriptyline (20 mg/kg i.p. 4 hours before 1-Dopa) and saline (1 hour before 1-Dopa). […] The test drugs were all tested at 10 mg/kg i.p.

[7] = system: mice; assay: Motor activity in mice (exploratory activity, locomotion cage); format: in vivo; conditions: Mus musculus, ip, 1 h, read-out: Motor activity ID50
Protocol: The exploratory activity of mice was recorded in a locomotion cage in which the movements were counted each time the animals cross-circuit an electrical current in the bottom plate. The activity was recorded for ten minutes one hour after the administration of the drug. The animals were tested individually. Groups of six mice were used and the mice were only used once. The activity was expressed in percent of the activity of control groups ran simultaneously.

[8] = system: mice; assay: Anticholinergic effect (mydriasis) in mice; format: in vivo
Protocol: (§4) Acute toxicity, behavior and anticholinergic effect (mydriasis) in mice
(§5) The compounds were given by intravenous route to 3 mice. […] Seizures, gait, sedation and grip strength were recorded. […] PD200 is the dose which increases the pupil by 200%.

[9] = Acute toxicity in mice; conditions: mouse, in vivo, iv, within 24 hours
Protocol: as §4, §5

[10] = Drug induced arrhythmia in rats: ECG changes and LD50; format: in vivo; conditions: in vivo, iv; i.v. infusion, rat, stepwise increased doses
Source text: (§6) Drug Induced Arrhythmia in Rats: ECG changes and LD50
(§7) Rats were infused intravenously with test drugs and relevant reference compounds. The doses are increased stepwise. The first dose causing ECG changes of any type was noted, and thereafter the doses were increased up to the lethal dose.

[11] = system: rats; assay: as above; format: in vivo
Source text: as §6, §7

[12] = system: uptake of tritiated 5-HT; assay: Inhibition of the uptake of tritiated 5-HT in vivo (drug i.p., uptake in midbrain slices); design: species or system mice
[13] = first observable after; cited from earlier work

## NC1CCC(c2ccccc2)(c2ccccc2)C1 (stereo not shown) [PUB 105, 1-Amino-3,3-diphenylcyclopentane]
[1]
  Inhibition (50 %) of uptake in vitro, 5-HT: 0.18 µg/mL
[1]; in vitro
  inhibition of uptake of 5-hydroxytryptamine in vitro, in words: potent inhibitors
[2]
  Inhibition (50 %) of uptake in vitro, NA: 0.15 µg/mL
[2]; in vitro
  inhibition of uptake of noradrenaline in vitro, in words: potent inhibitors
[3]
  ED50: 10 to 20 mg/kg
[3]; in vivo
  inhibition of uptake of 5-hydroxytryptamine in vivo, in words: strong inhibition
[4]; in vivo
  inhibition of uptake of noradrenaline in vivo, in words: strong inhibition
[4]
  ED50: 20 mg/kg
[4]; uptake inhibition, compared with imipramine
  selectivity towards noradrenaline: substantially nonselective ability towards noradrenaline
[5]
  5-HTP potentiation, 25 mg/kg i.p., 1h: 12.5
  5-HTP potentiation, 25 mg/kg i.p., 4h: 25
[6]
  L-DOPA potentiation, 10 mg/kg i.p., 1h: 3
  L-DOPA potentiation, 10 mg/kg i.p., 4h: 3
[7]; i.p., one hour after administration
  ED50: > 50 mg/kg
[8]; mouse, in vivo, iv, 10 min
  Mydriasis PD200: 19 mg/kg
[9]
  LD50 at 24 h: 22 mg/kg
[10]
  LD50: 58 mg/kg
[11]; i.v. infusion
  ECG changes i.v. rat (first dose causing ECG changes of any type): 14
[11]; i.v., rat
  dose causing ECG changes relative to that of imipramine: 3 times
[12]
  uptake inhibition still pronounced after: 16 h
[12]; uptake inhibition increases with time
  time of maximal uptake inhibition: four
[12]; uptake of 5-HT and noradrenaline
  duration of inhibition of the uptake mechanism compared with imipramine: much longer time than does the reference substance imipramine

## CN(C)CCCN1c2ccccc2CCc2ccccc21 [Imipramine, imipramine, reference compound]
[1]
  Inhibition (50 %) of uptake in vitro, 5-HT: 0.10 µg/mL
[2]
  Inhibition (50 %) of uptake in vitro, NA: 0.06 µg/mL
[3]
  ED50: 24 mg/kg
[4]
  ED50: 6 mg/kg
[5]; control group
  potentiation of dl-5-HTP by reference, in words: constantly potentiated dl-5-HTP
[5]
  5-HTP potentiation, 25 mg/kg i.p., 1h: 25
  5-HTP potentiation, 25 mg/kg i.p., 4h: 0
[6]
  L-DOPA potentiation, 10 mg/kg i.p., 1h: 2
  L-DOPA potentiation, 10 mg/kg i.p., 4h: 1
[7]
  ED50: 45 mg/kg
[8]; i.v., 10 minutes after injection, dose which increases the pupil by 200%
  Mydriasis PD200: 13 mg/kg
[13]
  onset of antidepressive effect: 3 weeks

— patent publication US4141993A, “Compounds of diphenylcyclopentylamine type and methods for their preparation” (priority 1971, dated 1979)
